Experimental data reported in patent US20260274853A1, “BIFUNCTIONAL COMPOUNDS CONTAINING PYRIMIDINE DERIVATIVES FOR DEGRADING CYCLIN-DEPENDENT KINASE 2 VIA UBIQUITIN PROTEASOME PATHWAY” (NIKANG THERAPEUTICS, INC., priority 2022, published 2026).

Molecular target: T1, CDK2 (Homo sapiens, UniProt P24941)
T1 construct: High-Throughput Measurement of Cellular Endogenous CDK2; endogenous in cells; host or cells: OVCAR3
Assay: Inhibition of CDK2: phospho-Rb (S807/811) HTRF measurement in OVCAR3 cells
Format: cell-based
Conditions: 24 h compound treatment, read-out: pRb (nM), IC50 in pRB(S807/811) assay
Method: Phosphorylation of RB protein at S807/811 were measured using HTRF phospho-RB cellular kits (Cat #64RBS807PEG) from Cisbio.
On Day 1, OVCAR3 (dependent on CDK2) cells were seeded into 96-well tissue-culture treated plates at 20,000 cells/well in 200 μL and incubated overnight at 37° C. in CO2 atmosphere. On Day 2, the cells were treated with test compounds at concentrations from 0.3 to 10,000 nM using HP D300 digital dispenser. Twenty-four hours after compound treatment, cell culture media was removed by flicking the plate and tapping the plate against clean paper towel. Immediately 30 μL 1× lysis buffer was supplemented from the kit and the plate was incubated at room temperature on shaker for 30 min. After homogenization by pipetting up and down, 8 μL cell lysate from 96-well cell culture plate was transferred to 384-well small volume white detection plate. 2 μL premixed detection solution was added and the plate was covered with sealer. To prepare the detection solution, d2 conjugated-phospho-RB antibody and Eu-cryptate conjugated phosphor-RB antibody were diluted into detection buffer following manufacturer's instruction. Detection plates were incubated for 4 h at room temperature and read on ClarioStar (BMG Labtech) in TR-FRET mode (665 nM and 620 nM). The TR-FRET ratio (665 nM/620 nM) was plotted against the compound concentration and normalized to DMSO controls. Half maximal inhibition concentration (IC50) values are calculated with a four-parameter logistic fit using GraphPad Prism (version 8; La Jolla, CA).
In the table below, A indicates a IC50 of less than 0.1 μM; B indicates a IC50 of greater than or equal to 0.1 μM but less than 0.5 μM; C indicates a IC50 of greater than or equal to 0.5 μM but less than 1 μM; and D indicates a […] of greater than or equal to 1 μM but less than 10 μM.

| Structure (SMILES) | IC50 |
| --- | --- |
| Cn1nc(N2CCC(=O)NC2=O)c2ccc(C3CCN(CC4CCN(S(=O)(=O)[C@H]5CC[C@H](Nc6ncc(C(F)(F)F)c(-c7cnn(CC(F)(F)F)c7)n6)CC5)CC4)CC3)cc21 [Example 94, 1-(1-methyl-6-(1-((1-(((1r,4r)-4-((4-(1-(2,2,2-trifluoroethyl)-1H-pyrazol-4-yl)-5-(trifluoromethyl)pyrimidin-2-yl)-amino)cyclohexyl)sulfonyl)piperidin-4-yl)methyl)piperidin-4-yl)-1H-indazol-3-yl)dihydropyrimidine-2,4(1H,3H)-dione] | 100 to 500 nM |
| O=C1CCN(c2ccc(N3CCN(Cc4cccc(S(=O)(=O)N5CCC(Nc6ncc(C(F)(F)F)c(-c7cnn(-c8ccccc8F)c7)n6)CC5)c4)CC3)cc2)C(=O)N1 [Example 71, 1-(4-(4-(3-((4-((4-(1-(2-fluorophenyl)-1H-pyrazol-4-yl)-5-(trifluoromethyl)-pyrimidin-2-yl)amino)piperidin-1-yl)sulfonyl)benzyl)piperazin-1-yl)-phenyl)dihydropyrimidine-2,4(1H,3H)-dione] | 100 to 500 nM |
| Cn1nc(N2CCC(=O)NC2=O)c2ccc(C3CCN(Cc4cccc(S(=O)(=O)N5CC[C@H](Nc6ncc(C(F)(F)F)c(-c7cnn(CC(F)F)c7)n6)[C@H](F)C5)c4)CC3)cc21 (racemic) [Example 37] | < 100 nM |
| Cn1nc(N2CCC(=O)NC2=O)c2ccc(C3CCN(CCc4cccc(S(=O)(=O)[C@H]5CC[C@H](Nc6ncc(C(F)(F)F)c(-c7cnn(CC(F)(F)F)c7)n6)CC5)c4)CC3)cc21 [Example 95, 1-(1-methyl-6-(1-(3-(((1r,4r)-4-((4-(1-(2,2,2-trifluoroethyl)-1H-pyrazol-4-yl)-5-(trifluoromethyl)pyrimidin-2-yl)-amino)-cyclohexyl)sulfonyl)phenethyl)piperidin-4-yl)-1H-indazol-3-yl)dihydro-pyrimidine-2,4(1H,3H)-dione] | 100 to 500 nM |
| Cn1nc(N2CCC(=O)NC2=O)c2ccc(N3CC4CCC(C3)N4Cc3cccc(S(=O)(=O)N4CC[C@H](Nc5ncc(C(F)(F)F)c(-c6cnn(CC(F)(F)F)c6)n5)[C@H](F)C4)c3)cc21 [Example 85, 1-(6-(8-(3-(((3R,4S)-3-fluoro-4-((4-(1-(2,2,2-trifluoroethyl)-1H-pyrazol-4-yl)-5-(trifluoromethyl)pyrimidin-2-yl)-amino)-piperidin-1-yl)sulfonyl)benzyl)-3,8-diazabicyclo[3.2.1]octan-3-yl)-1-methyl-1H-indazol-3-yl)dihydro-pyrimidine-2,4(1H,3H)-dione] | 100 to 500 nM |
| Cn1nc(N2CCC(=O)NC2=O)c2ccc(C3CCN(Cc4cccc(S(=O)(=O)N5CC[C@@H](Nc6ncc(C(F)(F)F)c(-c7cnn(CC(F)(F)F)c7)n6)[C@@H](F)C5)c4)CC3(F)F)cc21 (stereo partly drawn) [Example 66, 1-(6-(3,3-difluoro-1-(3-(((3S,4R)-3-fluoro-4-((4-(1-(2,2,2-trifluoroethyl)-1H-pyrazol-4-yl)-5-(trifluoromethyl)-pyrimidin-2-yl)amino)piperidin-1-yl)-sulfonyl)benzyl)piperidin-4-yl)-1-methyl-1H-indazol-3-yl)dihydro-pyrimidine-2,4(1H,3H)-dione] | 1000 to 10000 nM |

Other lines, results leading:

| IC50 | Structure (SMILES) |
| --- | --- |
| 100 to 500 nM | O=C1CCC(N2CCN(Cc3cccc(S(=O)(=O)N4CCC(Nc5ncc(C(F)(F)F)c(-c6cnn(CC(F)(F)F)c6)n5)CC4)c3)C3CC32)C(=O)N1 (stereo not drawn) [Example 63, 3-(5-(3-((4-((4-(1-(2,2,2-trifluoro-ethyl)-1H-pyrazol-4-yl)-5-(trifluoromethyl)-pyrimidin-2-yl)amino)-piperidin-1-yl)-sulfonyl)benzyl)-2,5-diazabicyclo[4.1.0]-heptan-2-yl)-piperidine-2,6-dione] |
| 100 to 500 nM | O=C1CCC(N2Cc3cc(N4CCC(CN5CCN(c6cccc(S(=O)(=O)N7CCC(Nc8ncc(C(F)(F)F)c(-c9cnn(CC(F)(F)F)c9)n8)CC7)c6)CC5)CC4)ccc3C2=O)C(=O)N1 (stereo not drawn) [Example 45, 3-(1-oxo-5-(4-((4-(3-((4-((4-(1-(2,2,2-trifluoroethyl)-1H-pyrazol-4-yl)-5-(trifluoromethyl)pyrimidin-2-yl)-amino)-piperidin-1-yl)sulfonyl)-phenyl)piperazin-1-yl)methyl)-piperidin-1-yl)isoindolin-2-yl)-piperidine-2,6-dione] |
| 100 to 500 nM | Cn1nc(N2CCC(=O)NC2=O)c2ccc(C3CCN(C(c4cccc(S(=O)(=O)N5CCC(Nc6ncc(C(F)(F)F)c(-c7cnn(CC(F)(F)F)c7)n6)CC5)c4)C(F)(F)F)CC3)cc21 (stereo not drawn) [Example 91, 1-(1-methyl-6-(1-(2,2,2-trifluoro-1-(3-((4-((4-(1-(2,2,2-trifluoroethyl)-1H-pyrazol-4-yl)-5-(trifluoromethyl)-pyrimidin-2-yl)amino)piperidin-1-yl)-sulfonyl)phenyl)ethyl)piperidin-4-yl)-1H-indazol-3-yl)dihydro-pyrimidine-2,4(1H,3H)-dione] |
| < 100 nM | O=C1CCC(Nc2ccc(N3CCN(Cc4cccc(S(=O)(=O)N5CCC(Nc6ncc(C(F)(F)F)c(-c7cnn(CC(F)(F)F)c7)n6)CC5)c4)CC3)cc2)C(=O)N1 (stereo not drawn) [Example 53] |
| 100 to 500 nM | O=C1CCC(N2CCN(Cc3cccc(S(=O)(=O)N4CCC(Nc5ncc(C(F)(F)F)c(-c6cnn(CC(F)(F)F)c6)n5)CC4)c3)CC2)C(=O)N1 (stereo not drawn) [Example 76, 3-(4-(3-((4-((4-(1-(2,2,2-trifluoro-ethyl)-1H-pyrazol-4-yl)-5-(trifluoromethyl)-pyrimidin-2-yl)amino)-piperidin-1-yl)-sulfonyl)benzyl)piperazin-1-yl)-piperidine-2,6-dione] |
| 100 to 500 nM | O=C1CCN(C2CCCN(Cc3cccc(S(=O)(=O)N4CCC(Nc5ncc(C(F)(F)F)c(-c6cnn(CC(F)(F)F)c6)n5)CC4)c3)C2)C(=O)N1 (stereo not drawn) [Example 80, 1-(1-(3-((4-((4-(1-(2,2,2-trifluoro-ethyl)-1H-pyrazol-4-yl)-5-(trifluoromethyl)-pyrimidin-2-yl)amino)-piperidin-1-yl)sulfonyl)benzyl)-piperidin-3-yl)dihydropyrimidine-2,4(1H,3H)-dione] |
| 100 to 500 nM | O=C1CCN(C2CCN(Cc3cccc(S(=O)(=O)N4CCC(Nc5ncc(C(F)(F)F)c(-c6cnn(CC(F)(F)F)c6)n5)CC4)c3)CC2)C(=O)N1 [Example 46] |
| 500 to 1000 nM | Cn1nc(N2CCC(=O)NC2=O)c2ccc(C3CCN(Cc4cccc(S(=O)(=O)N5CCC(Nc6ncc(C(F)(F)F)c(-c7cnn(CC(F)(F)F)c7)n6)CC5)c4C(F)(F)F)CC3)cc21 [Example 87, 1-(1-methyl-6-(1-(3-((4-((4-(1-(2,2,2-trifluoroethyl)-1H-pyrazol-4-yl)-5-(trifluoromethyl)pyrimidin-2-yl)-amino)-piperidin-1-yl)sulfonyl)-2-(trifluoro-methyl)benzyl)piperidin-4-yl)-1H-indazol-3-yl)dihydro-pyrimidine-2,4(1H,3H)-dione] |
| 100 to 500 nM | Cn1nc(N2CCC(=O)NC2=O)c2ccc(N3CCC(CN4CCN(S(=O)(=O)N5CCC(Nc6ncc(C(F)(F)F)c(-c7cnn(CC(F)(F)F)c7)n6)CC5)CC4)CC3)cc21 [Example 97, 1-(1-methyl-6-(4-((4-((4-((4-(1-(2,2,2-trifluoroethyl)-1H-pyrazol-4-yl)-5-(trifluoromethyl)pyrimidin-2-yl)amino)-piperidin-1-yl)sulfonyl)piperazin-1-yl)-methyl)piperidin-1-yl)-1H-indazol-3-yl)dihydropyrimidine-2,4(1H,3H)-dione] |
